The values below come from patent publication US11945799B2, “4-ethynylpyridine derivatives useful as GCN2 inhibitors” (IP2IPO INNOVATIONS LIMITED, priority 2020, dated 2024).

Read-outs that look alike come from different tables or passages of the source.

Data set [1] has as its target T1, full-length human GCN2 enzyme (Homo sapiens, UniProt Q9P2K8).
T1 construct: purchased Carna Bioscience
Kind of data set: GCN2 enzyme inhibition, LanthaScreen TR-FRET Kinase Activity assay (10 μM and 300 μM ATP). Type of data set: biochemical. The following applies: mean of replicate assays. How it is done: Biological and Pharmacokinetic Testing (a) GCN2 Enzyme Inhibition (10 μM and 300 μM Assays) Assay Protocol Overview:
The inhibitory activity of the Example compounds towards GCN2 enzyme was measured according to the description below, using a LanthaScreen TR-FRET (Time Resolved Fluorescence Resonance Energy Transfer) Kinase Activity assay distributed by ThermoFisher Scientific.
The full-length human GCN2 enzyme (UniProt accession number Q9P2K8) was used for all experiments (Carna Bioscience). The TR-FRET pair was composed of GFP-eIF2α and LanthaScreen Terbium-labeled anti-peIF2α (pSer52) Antibody.
Each example compound was dissolved in DMSO (0.15 mM) and dispensed in a 384-well plate by a D300 dispenser (Tecan) to a final concentration range 3000-0.13 nM using the logarithmic dilution mode in 2 replicates. Full inhibition (3000 nM commercial reference inhibitor) and DMSO vehicle control wells were also included on the same plate. All volumes were normalized to the final DMSO concentration of 2% of the reaction volume. Next, 5 μL of H2O was added to each well of the plate.
The enzyme mixture was prepared to obtain the following concentrations: • GCN2—30 nM • unloaded tRNA—0.3 nM • HEPES (pH=7.0)—100 mM • MgCl2—20 mM; MnCl2—10 mM
The mixture was applied by adding 5 μL to each well of the plate. The enzyme and the tested compound were then incubated at room temperature for 20 min while shaking at 450 rpm.
The substrate mixture was prepared to obtain the following concentrations: • GFP-eIF2α—240 nM • ATP—900 μM or 30 μM • HEPES (pH=7.0)—50 mM • MgCl2—10 mM • MnCl2—5 mM.
The mixture was applied by adding 5 μL to each well of the plate. Thus, the final concentrations of the 15 μL reaction mixture were as follows: • GCN2—10 nM • unloaded tRNA—0.1 nM • GFP-eIF2α—80 nM • ATP—300 μM or 10 μM • HEPES (1 M, pH=7.0)—50 mM • MgCl2—10 mM • MnCl2—5 mM.
The reaction was allowed to proceed at room temperature for 30 min while shaking at 450 rpm.
The antibody mixture was prepared to obtain the following concentrations: • Na2EDTA·2H2O—40 mM, in TR-FRET Dilution Buffer (Life technologies) • Tb—anti-peIF2a antibodies—4 nM.
The mixture was applied by adding 15 μL to each well. The plate was then incubated at room temperature for 60 min while shaking at 450 rpm and then read using Tecan Spark reader using specific TR-FRET filters.
The analysis of the GFP/Tb fluorescence results was conducted with GraphPad Prism to determine IC50 for each of the example compounds using 4-parameter model: log(inhibitor) vs. response-variable slope. IC50 and K, values were calculated in the usual way. The assay was carried out between 1 and 15 times. The results in the table below are the mean results from replicate assays for the compound in question, where applicable.
A general note: TR-FRET usually uses a lanthanide donor and a delayed reading to cut background.

The nature of data set [2]: Kinetic solubility in PBS buffer pH 7.4. The format is physicochemical. The following applies: aqueous buffer, kinetic from dmso stock; PBS buffer pH 7.4, 90 minutes at room temperature, from 10 mM DMSO stock. On the procedure: The kinetic solubility assay investigates a solubility based on the amount of material which remains in solution after a precipitation process. […] Assay is performed using Multiscreen Vacuum Manifold. A buffer of interest (in standard protocol PBS buffer at pH=7.4 is used) is spiked with stock solution and incubated for 90 minutes at room temperature. After that time solution/suspension is filtrated. The concentration of each compound is determined on the base of prepared calibration curve using UV-VIS spectrophotometry method. The assay is made in triplicate.
Buffer of interest: 0.24 g of KH2PO4, 1.44 g of Na2HPO4, 0.2 g of KCl and 8 g NaCl and dissolve in 1 L distilled H2O; adjust pH to appropriate value (pH 7.4). 190 μl of buffer of interest was dispensed into the wells of a 96 well filter plate, followed by 10 μl of compound (10 mM stock solution in DMSO). The plate was shaken gently at room temperature for 90 minutes at 500 rpm using a BioSan, Plate Shaker-Thermostat, PST-60 HL-4. After 90 minutes, the plate was filtered using a vacuum manifold and vacuum pump. 100 μl of each filtrate and 100 μl acetonitrile was transferred to a 96 well UV-visible light transparent plate and the UV-visible absorption spectrum was measured using a Biotek Synergy 2 multiplate reader from 250-500 nm, interval range 10 nm. The amount of test compound was calculated using a calibration curve prepared by serial dilution of compounds in equivalent amounts of DMSO and acetonitrile.

Setting [3] is: read-out: GCN2 IC50 (nM) 10 uM ATP, 10 uM ATP.
The mark [4] stands for this setting: read-out: GCN2 IC50 (nM) 300 uM ATP, 300 uM ATP.
Setting [5] is: read-out: GCN2 Ki (nM) 10 uM ATP, 10 uM ATP.
The mark [6] stands for this setting: read-out: GCN2 Ki (nM) 300 uM ATP, 300 uM ATP.

T1 sequence (Q9P2K8 whole entry): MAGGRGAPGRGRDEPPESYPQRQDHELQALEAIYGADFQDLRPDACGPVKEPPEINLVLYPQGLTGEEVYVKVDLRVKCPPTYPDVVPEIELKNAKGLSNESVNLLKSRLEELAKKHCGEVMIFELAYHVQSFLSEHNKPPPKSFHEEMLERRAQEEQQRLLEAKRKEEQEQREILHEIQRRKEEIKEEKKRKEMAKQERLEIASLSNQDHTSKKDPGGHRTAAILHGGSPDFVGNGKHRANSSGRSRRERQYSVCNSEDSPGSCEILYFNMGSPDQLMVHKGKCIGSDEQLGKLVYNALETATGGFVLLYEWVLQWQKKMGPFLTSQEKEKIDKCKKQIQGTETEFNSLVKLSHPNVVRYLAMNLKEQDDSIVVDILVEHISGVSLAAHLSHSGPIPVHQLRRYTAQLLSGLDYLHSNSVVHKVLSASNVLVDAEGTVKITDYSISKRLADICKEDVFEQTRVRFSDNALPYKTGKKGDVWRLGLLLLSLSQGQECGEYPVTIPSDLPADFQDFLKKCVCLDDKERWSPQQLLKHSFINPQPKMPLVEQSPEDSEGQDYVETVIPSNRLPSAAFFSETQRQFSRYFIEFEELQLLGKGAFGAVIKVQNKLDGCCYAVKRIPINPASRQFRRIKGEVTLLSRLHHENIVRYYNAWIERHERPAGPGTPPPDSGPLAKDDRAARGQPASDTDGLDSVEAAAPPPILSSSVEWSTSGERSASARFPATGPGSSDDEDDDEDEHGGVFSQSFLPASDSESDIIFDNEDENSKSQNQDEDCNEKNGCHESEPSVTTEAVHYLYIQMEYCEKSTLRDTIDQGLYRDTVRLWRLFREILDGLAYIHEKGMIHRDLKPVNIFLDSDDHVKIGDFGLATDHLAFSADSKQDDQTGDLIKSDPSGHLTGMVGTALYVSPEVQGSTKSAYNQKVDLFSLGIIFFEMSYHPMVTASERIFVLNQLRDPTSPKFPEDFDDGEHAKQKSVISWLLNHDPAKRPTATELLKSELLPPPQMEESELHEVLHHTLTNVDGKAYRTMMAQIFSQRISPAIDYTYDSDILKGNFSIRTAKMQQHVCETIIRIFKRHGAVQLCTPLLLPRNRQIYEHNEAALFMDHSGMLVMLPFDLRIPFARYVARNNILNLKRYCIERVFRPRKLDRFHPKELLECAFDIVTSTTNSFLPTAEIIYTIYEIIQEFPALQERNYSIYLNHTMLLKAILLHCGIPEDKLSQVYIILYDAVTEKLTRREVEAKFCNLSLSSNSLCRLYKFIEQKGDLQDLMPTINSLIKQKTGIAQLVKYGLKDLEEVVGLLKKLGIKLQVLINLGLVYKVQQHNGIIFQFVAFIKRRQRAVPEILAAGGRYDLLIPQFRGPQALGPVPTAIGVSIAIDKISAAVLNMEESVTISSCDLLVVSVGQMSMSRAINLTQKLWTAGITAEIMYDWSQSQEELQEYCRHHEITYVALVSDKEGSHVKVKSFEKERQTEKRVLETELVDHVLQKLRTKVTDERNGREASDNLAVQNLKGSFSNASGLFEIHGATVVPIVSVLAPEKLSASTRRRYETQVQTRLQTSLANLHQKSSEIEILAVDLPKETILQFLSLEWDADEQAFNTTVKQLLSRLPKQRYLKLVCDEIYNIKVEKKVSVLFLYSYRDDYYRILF

As a reminder, the IC50 is the concentration that gives 50% inhibition. For orientation: Ki means the equilibrium dissociation constant of an inhibitor or competing ligand from its target. As a reminder, the solubility (kinetic) is the concentration staying in solution when a stock, usually in DMSO, is diluted into the medium. On to `COc1ncc(Cl)cc1S(=O)(=O)Nc1nccc(C#Cc2cnc(N)nc2)c1Cl` [Example 2, N-{4-[2-(2-aminopyrimidin-5-yl)ethynyl]-3-chloropyridin-2-yl}-5-chloro-2-methoxypyridine-3-sulfonamide], for which the IC50 in data set [1] (setting [3]) was found to be 8.1 nM; in data set [1] (setting [4]), 79 nM. Further, the Ki is 2.6 nM in data set [1] (setting [5]) and 1.2 nM in data set [1] (setting [6]). Besides, the kinetic solubility at 90 min in data set [2] was 226 µg/mL.

Take `COc1ncc(Cl)cc1S(=O)(=O)Nc1nccc(C#Cc2cnc(N)c3ncccc23)c1F` [Example 4, N-{4-[2-(8-amino-1,7-naphthyridin-5-yl)ethynyl]-3-fluoropyridin-2-yl}-5-chloro-2-methoxypyridine-3-sulfonamide]: the IC50 in data set [1] (setting [3]) amounted to 2.9 nM; in data set [1] (setting [4]) it was 17.6 nM. Further, the Ki was 0.9 nM in data set [1] (setting [5]) and 0.3 nM in data set [1] (setting [6]). In addition, the kinetic solubility at 90 min in data set [2] was 29.5 µg/mL.

As for `COc1ncc(Cl)cc1S(=O)(=O)Nc1nccc(C#Cc2cncc3nccnc23)c1F` [Example 5, 5-chloro-N-{4-[2-(pyrido[3,4-b]pyrazin-8-yl)ethynyl]-3-fluoropyridin-2-yl}-2-methoxypyridine-3-sulfonamide], the IC50 in data set [1] (setting [3]) came to 7.8 nM; in data set [1] (setting [4]), 186 nM. The Ki came to 2.5 nM in data set [1] (setting [5]) and 2.8 nM in data set [1] (setting [6]). For the same compound, the kinetic solubility at 90 min in data set [2] is 223 µg/mL.

As to `COc1ncc(Cl)cc1S(=O)(=O)Nc1nccc(C#Cc2cncc3cccnc23)c1F` [Example 6, 5-chloro-N-{4-[2-(1,6-naphthyridin-8-yl)ethynyl]-3-fluoropyridin-2-yl}-2-methoxypyridine-3-sulfonamide], the figures for the IC50 in data set [1] (setting [3]) and in data set [1] (setting [4]) were 6.7 nM and 49.3 nM, respectively. The Ki was determined as 2.1 nM in data set [1] (setting [5]) and 0.8 nM in data set [1] (setting [6]). Further, in data set [2], the kinetic solubility at 90 min amounted to 40.3 µg/mL.

Take `COc1ncc(Cl)cc1S(=O)(=O)Nc1nccc(C#Cc2cnn3c(N)ccnc23)c1F` [Example 7, N-{4-[2-(7-aminopyrazolo[1,5-a]pyrimidin-3-yl)ethynyl]-3-fluoropyridin-2-yl}-5-chloro-2-methoxypyridine-3-sulfonamide]: the IC50 in data set [1] (setting [3]) turned out to be 7.9 nM; in data set [1] (setting [4]), 105 nM. Also, the Ki in data set [1] (setting [5]) is 2.5 nM; in data set [1] (setting [6]), 1.6 nM. In data set [2], the kinetic solubility at 90 min is 216 µg/mL.

On to `COc1ncc(Cl)cc1S(=O)(=O)Nc1nccc(C#Cc2cnc3c(N)cccn23)c1F` [Example 8, N-{4-[2-(8-aminoimidazo[1,2-a]pyridin-3-yl)ethynyl]-3-fluoropyridin-2-yl}-5-chloro-2-methoxypyridine-3-sulfonamide], for which the IC50 in data set [1] (setting [3]) stood at 9.9 nM; in data set [1] (setting [4]), 335 nM. Further, the Ki was found to be 3.1 nM in data set [1] (setting [5]) and 5.1 nM in data set [1] (setting [6]). For the same compound, the solubility (kinetic) at 90 min in data set [2] worked out at 214 µg/mL.

Consider `COc1ncc(Cl)cc1S(=O)(=O)Nc1nccc(C#Cc2cnc3ccccc3n2)c1F` [Example 9, 5-chloro N-{4-[2-(quinoxalin-2-yl)ethynyl]-3-fluoropyridin-2-yl}-2-methoxypyridine-3-sulfonamide], for which the IC50 worked out at 7.5 nM in data set [1] (setting [3]) and 112 nM in data set [1] (setting [4]). Further, the Ki in data set [1] (setting [5]) worked out at 2.4 nM; in data set [1] (setting [6]) it was 1.7 nM. For the same compound, the kinetic solubility at 90 min in data set [2] stood at 134 µg/mL.

For `COc1ncc(Cl)cc1S(=O)(=O)Nc1ncc(F)c(C#Cc2cnc(N)nc2)c1F` [Example 10, N-{4-[2-(2-aminopyrimidin-5-yl)ethynyl]-3,5-difluoropyridin-2-yl}-5-chloro-2-methoxypyridine-3-sulfonamide], the solubility (kinetic) at 90 min in data set [2] amounted to 138 µg/mL.

In the case of `COc1ncc(Cl)cc1S(=O)(=O)Nc1nccc(C#Cc2cnc3c(N)nccn23)c1F` [Example 11, N-{4-[2-(8-aminoimidazo[1,2-a]pyrazin-3-yl)ethynyl]-3-fluoropyridin-2-yl}-5-chloro-2-methoxypyridine-3-sulfonamide], the IC50 in data set [1] (setting [3]) is 2.3 nM; in data set [1] (setting [4]), 71.8 nM. For the same compound, the values for the Ki in data set [1] (setting [5]) and in data set [1] (setting [6]) were 0.7 nM and 1.1 nM, respectively. Besides, in data set [2], the kinetic solubility at 90 min was 216 µg/mL.

Take `COc1ccc(Cl)cc1S(=O)(=O)Nc1nccc(C#Cc2cnc3[nH]ncc3c2)c1F` [Example 12, 5-chloro-N-[3-fluoro-4-(2-{1H-pyrazolo[3,4-b]pyridin-5-yl}ethynyl)pyridin-2-yl]-2-methoxybenzene-1-sulfonamide]: the IC50 in data set [1] (setting [4]) was found to be 257 nM. Also, the inhibition constant Ki in data set [1] (setting [6]) came to 3.9 nM. In addition, the kinetic solubility at 90 min in data set [2] amounted to 161 µg/mL.

On to `COc1ccc(Cl)cc1S(=O)(=O)Nc1nccc(C#Cc2cnc(N)nc2)c1F` [Example 13, N-{4-[2-(2-aminopyrimidin-5-yl)ethynyl]-3-fluoropyridin-2-yl}-5-chloro-2-methoxybenzene-1-sulfonamide], for which the half-maximal inhibitory concentration (IC50) in data set [1] (setting [4]) was 611 nM. Further, the Ki in data set [1] (setting [6]) came to 9.3 nM. Further, the solubility (kinetic) at 90 min in data set [2] amounted to 109 µg/mL.

On to `O=S(=O)(Nc1nccc(C#Cc2cnc3[nH]ncc3c2)c1F)c1cc(Cl)ccc1Cl` [Example 14, 2,5-dichloro-N-[3-fluoro-4-(2-{1H-pyrazolo[3,4-b]pyridin-5-yl}ethynyl)pyridin-2-yl]benzene-1-sulfonamide], for which, in data set [1] (setting [4]), the concentration for half-maximal inhibition (IC50) is 236 nM. Also, the Ki in data set [1] (setting [6]) amounted to 3.6 nM. Besides, the solubility (kinetic) at 90 min in data set [2] is 24.7 µg/mL.

In the case of `Nc1ncc(C#Cc2ccnc(NS(=O)(=O)c3cc(Cl)ccc3Cl)c2F)cn1` [Example 15, N-{4-[2-(2-aminopyrimidin-5-yl)ethynyl]-3-fluoropyridin-2-yl}-2,5-dichlorobenzene-1-sulfonamide], in data set [1] (setting [4]), the 50% inhibitory concentration (IC50) is 465 nM. Further, in data set [1] (setting [6]), the Ki is 7.1 nM. Moreover, in data set [2], the solubility (kinetic) at 90 min is 224 µg/mL.

In the case of `Nc1ncc(C#Cc2ccnc(NS(=O)(=O)c3cc(Cl)cc(CO)c3Cl)c2F)cn1` [Example 16, N-{4-[2-(2-aminopyrimidin-5-yl)ethynyl]-3-fluoropyridin-2-yl}-2,5-dichloro-3-(hydroxymethyl)benzene-1-sulfonamide], in data set [1] (setting [4]), the IC50 came out at 111 nM. Further, the inhibitory constant (Ki) in data set [1] (setting [6]) is 1.7 nM. Also, the kinetic solubility at 90 min in data set [2] worked out at 218 µg/mL.

Consider `O=S(=O)(Nc1nccc(C#Cc2cnc3[nH]ncc3c2)c1F)c1cc(Cl)cc(CO)c1Cl` [Example 17, 2,5-dichloro-N-[3-fluoro-4-(2-{1H-pyrazolo[3,4-b]pyridin-5-yl}ethynyl)pyridin-2-yl]-3-(hydroxymethyl)benzene-1-sulfonamide], for which, in data set [1] (setting [4]), the concentration for half-maximal inhibition (IC50) was determined as 59 nM. The Ki in data set [1] (setting [6]) was 0.9 nM. Further, the solubility (kinetic) at 90 min in data set [2] was determined as 250 µg/mL.

As for `COc1nc(N)ncc1C#Cc1ccnc(NS(=O)(=O)c2cc(Cl)cnc2OC)c1F` [Example 35, N-{4-[2-(2-amino-4-methoxypyrimidin-5-yl)ethynyl]-3-fluoropyridin-2-yl}-5-chloro-2-methoxypyridine-3-sulfonamide], in data set [1] (setting [4]), the concentration for half-maximal inhibition (IC50) stood at 328 nM. Moreover, the Ki in data set [1] (setting [6]) was 5 nM.
